Measurements: patent US20050159599A1, “Cyclic compound, process for producing the same, and pest control agent” (priority 2002, published 2005)
Values belong to the compound of their own block, whether it stands above or below them.

Columns and labels:
[1] = test system: Plutella xylostella; test: Insecticidal effect for Plutella xylostella by immersion treatment of host crop root (Test Example 3); type: in vivo; details: 25 ppm, cabbage root immersed 5 days, ten second-instar larvae on stem and leaves, counted on the fifth day, 24° C.; for pest or weed control at 25 ppm: Plutella xylostella, 120 h, read-out: rate of dead pests (%)
Description: Insecticidal Effect for Plutella xylostella by Immersion Treatment of Host Crop Root
Roots of 4-leave stage cabbage was washed with tap water to remove soil, and then immersed in a pesticidal solution which was prepared by dissolving 5 mg of test compound (represented by the compound Nos. in the above Examples) in 0.5 ml of acetone containing Tween 20 (trade name) and then diluting it to the prescribed concentration (25 ppm) with ion-exchange water, and which was filled in a light-shielded Erlenmeyer flask (100 ml). On the fifth day after immersion of root, the root was cut off, and the stem and leaves were put into an ice cream cup (180 ml). Ten second-instar larvae of Plutella xylostella were set free therein, and the cup was left in a temperature-controlled breeding room (24° C.). On the fifth day after, the number of surviving Plutella xylostella was examined. The rate of dead pests was calculated by the following formula. rate of dead pests (%)=(number of dead pests/number of test pests)×100

[2] = test system: Plutella xylostella; test: Pest control effect for Plutella xylostella by plant seedling foot soil surface irrigation treatment, 24th day (Test Example 6); type: in vivo; details: 20 mg/plant; soil surface irrigation of cabbage; larvae counted on the 24th day
Description: (§1) Pest Control Effect for Plutella xylostella by Plant Seedling Foot Soil Surface Irrigation Treatment With Pesticidal Solution
(§2) A pesticidal solution which was prepared by dissolving 20 mg of test compound (represented by the compound Nos. in the above Examples) in 0.2 ml of acetone containing Tween 20 (trade name) and then diluting to 3 ml with ion-exchange water, was irrigated on the plant foot soil surface of 2.5-leave stage cabbage. This cabbage plant was transplanted to 1/5000a pot, and left in a facility wherein imagoes of Plutella xylostella were set free to lay eggs successively. On the 24th day after, the number of lavae on the plant was examined. The rate of pest control was calculated by the following formula. rate of pest control (%)=(1−number of pests in treated plant/number of pests in non-treated-plant)×100

[3] = test system: Spodoptera litura; test: Insecticidal effect for Spodoptera litura by immersion treatment of host crop root (Test Example 4); type: in vivo; details: 25 ppm, soybean root immersion 5 days, second-instar larvae of Spodoptera litura, fifth day after; for pest or weed control at 25 ppm: 120 h, read-out: rate of dead pests (%)
In short: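 Soil was washed from the roots of soybean plants at the primary-leaf stage, and the roots were immersed in a pesticidal solution held in a light-shielded 100 ml Erlenmeyer flask. The solution was made from acetone containing Tween 20, diluted with ion-exchange water. Five days after root immersion, two primary leaves were cut and placed in a 180 ml cup with ten second-instar Spodoptera litura larvae, then kept at 25° C. Survivors were counted five days later. The rate of dead pests (%) was calculated as dead pests divided by test pests, times 100.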

[4] = test system: Plutella xylostella; test: Insecticidal effect for Plutella xylostella by immersion treatment of host crop (Test Example 1); type: in vivo; details: cabbage leaf dipped, second-instar larvae of Plutella xylostella, fifth day after; for rate of dead pests (%): 100 ppm; for pest or weed control at 100 ppm: foliar, 120 h, read-out: rate of dead pests (%)
In short: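 Cabbage leaf discs dipped in 100 ppm compound (acetone/Tween 20, diluted in sticker water), dried, then infested with ten second-instar larvae and kept at 24° C. Survivors counted on day 5; mortality expressed as dead/tested pests ×100.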

[5] = test system: Spodoptera litura; test: Insecticidal effect for Spodoptera litura by spraying treatment to host crop (Test Example 2); type: in vivo; details: 100 ppm, sprayed on soybean, third-instar larvae of Spodoptera litura, fifth day after; for pest or weed control at 100 ppm: 120 h, read-out: rate of dead pests (%)
In short: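 Soybean plants with fully developed primary leaves sprayed to runoff with 100 ppm compound (acetone/Tween 20, sticker water). Dried leaves given to ten third-instar larvae at 25° C.; survivors counted on day 5, mortality as dead/tested × 100.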

[6] = test system: Plutella xylostella; test: Pest control effect for Plutella xylostella by plant seedling foot soil surface irrigation treatment, 30th day (Test Example 7); type: in vivo; details: 20 mg/plant; soil surface irrigation of cabbage; larvae counted on the 30th day
Description: as §1
as §2, with “30th” for “24th”, “non-treated plant)×100” for “non-treated-plant)×100”

[7] = test system: Plutella xylostella; test: Insecticidal effect for Plutella xylostella by seed treatment (Test Example 8); type: in vivo; details: cabbage seed treatment, leaves cut 31st day after sowing, first-instar larvae, third day after
Description: Insecticidal Effect for Plutella xylostella by Seed Treatment 4% aqueous solution of PVA (polyvinylalcohol) was applied to seeds of cabbage. Then the seeds were powdered with test compound (represented by the compound Nos. in the above Examples), and sowed in a Φ 6 cm in diameter Jiffy Pot (trade name). On the 31th day after sowing, the stem and leaves were cut off, and were put into an ice cream cup (180 ml). Fifteen first-instar larvae of Plutella xylostella were set free therein, and the cup was left in a temperature-controlled breeding room (24° C.). On the third day after, the number of surviving Plutella xylostella was examined. The rate of dead pests was calculated by the following formula. rate of dead pests (%)=(number of dead pests/number of test pests)×100

SMILES: C[S+]([O-])c1ccc(N2COCN(C(=O)c3c(F)cccc3F)C2=O)c(F)c1 (stereo not shown) [I-29]
rate of dead pests (%) [1]: 100% | rate of pest control (%) [2]: 92% | rate of dead pests (%) [3]: 100% | rate of dead pests (%) [4]: 100% | rate of dead pests (%) [5]: 100%

SMILES: O=C(c1c(F)cccc1F)N1COCN(c2ccc([S+]([O-])C(F)(F)F)cc2F)C1=O (stereo not shown) [I-45, 3-(2,6-difluorobenzoyl)-5-[2-fluoro-4-(trifluoromethylsulfinyl)phenyl]tetrahydro-4H-1,3,5-oxadiazin-4-one]
rate of pest control (%) [6]: 98% | pest or weed control at 25 ppm [3]: 100% | pest or weed control at 100 ppm [5]: 100%

melting point: 40 to 45 °C
SMILES: O=C(c1c(F)cccc1F)N1COCN(c2ccc([S+]([O-])C(F)(C(F)(F)F)C(F)(F)F)cc2F)C1=O (stereo not shown) [I-159, 3-(2,6-difluorobenzoyl)-5-[2-fluoro-4-(1,1,1,2,3,3,3-heptafluoro-2-propylsulfinyl)phenyl]tetrahydro-4H-1,3,5-oxadiazin-4-one]

SMILES: C#CCN1CN(C(=O)c2c(F)cccc2F)C(=O)N(c2ccc([S+]([O-])C(F)(F)C(F)Cl)cc2F)C1 (stereo not shown) [III-89]
rate of dead pests (%) [1]: 100% | rate of pest control (%) [2]: 92% | rate of dead pests (%) [4]: 100% | rate of dead pests (%) [5]: 100%

SMILES: O=C(c1c(F)cccc1F)N1COCN(c2ccc([S+]([O-])C(F)F)cc2F)C1=O (stereo not shown) [I-42, 3-(2,6-difluorobenzoyl)-5-[4-(difluoromethylsulfinyl)-2-fluorophenyl]tetrahydro-4H-1,3,5-oxadiazin-4-one]
pest or weed control at 25 ppm [1]: 100% | rate of pest control (%) [6]: 94% | pest or weed control at 25 ppm [3]: 100% | pest or weed control at 100 ppm [4]: 100% | pest or weed control at 100 ppm [5]: 100%

SMILES: O=C(c1c(F)cccc1F)N1COCN(c2ccc(SC(F)(F)F)cc2F)C1=O [I-44, 3-(2,6-difluorobenzoyl)-5-[2-fluoro-4-(trifluoromethylthio)phenyl]tetrahydro-4H-1,3,5-oxadiazin-4-one]
pest or weed control at 25 ppm [1]: 100% | rate of pest control (%) [6]: 96% | pest or weed control at 25 ppm [3]: 100% | pest or weed control at 100 ppm [4]: 100% | pest or weed control at 100 ppm [5]: 100% | rate of dead pests (%) ([7]; 1 mg/seed): 100% | rate of dead pests (%) ([7]; 5 mg/seed): 97%

SMILES: O=C(c1c(F)cccc1F)N1CSCN(c2cc(Cl)c(F)c(Cl)c2F)C1=O [II-10]
rate of pest control (%) [2]: 88% | rate of dead pests (%) [3]: 100% | rate of dead pests (%) [4]: 100% | rate of dead pests (%) [5]: 100%

SMILES: CN1CN(C(=O)c2c(F)cccc2F)C(=O)N(c2ccc([S+]([O-])C(F)(F)F)cc2F)C1 (stereo not shown) [III-164, 1-(2,6-difluorobenzoyl)-3-[2-fluoro-4-(trifluoromethylsulfinyl)phenyl]-5-methyltetrahydro-1,3,5-triazin-2(1H)-one]
rate of pest control (%) [6]: 95% | pest or weed control at 25 ppm [3]: 100% | pest or weed control at 100 ppm [4]: 100% | pest or weed control at 100 ppm [5]: 100%

SMILES: CN1CN(C(=O)c2c(F)cccc2F)C(=O)N(c2ccc(SC(F)(F)F)cc2F)C1 [III-160, 1-(2,6-difluorobenzoyl)-3-[2-fluoro-4-(trifluoromethylthio)phenyl]-5-methyltetrahydro-1,3,5-triazin-2(1H)-one]
pest or weed control at 25 ppm [1]: 90% | rate of pest control (%) [6]: 91% | pest or weed control at 100 ppm [4]: 100% | pest or weed control at 100 ppm [5]: 100%

SMILES: CN1CN(C(=O)c2c(F)cccc2F)C(=O)N(c2ccc([S+]([O-])C(F)(F)C(F)Cl)cc2F)C1 (stereo not shown) [III-84]
rate of pest control (%) [2]: 100% | rate of dead pests (%) [4]: 100% | rate of dead pests (%) [5]: 100%

SMILES: O=C(c1c(F)cccc1F)N1COCN(c2ccc(SC(F)(F)F)cc2)C1=O [I-25]
rate of pest control (%) [2]: 88% | rate of dead pests (%) [4]: 100%

melting point: 220 to 220.5 °C
SMILES: O=C(c1c(F)cccc1F)N1C[S+]([O-])CN(c2ccc(Cl)cc2)C1=O (stereo not shown) [II-2, 3-(4-chlorophenyl)-5-(2,6-difluorobenzoyl)tetrahydro-4H-1,3,5-thiadiazin-4-one-1-oxide]

melting point: 130 to 131 °C
SMILES: CC(C)N1CN(C(=O)c2c(F)cccc2F)C(=O)N(c2ccc(Cl)cc2)C1 [III-3, 1-(4-chlorophenyl)-3-(2,6-difluorobenzoyl)-5-isopropyltetrahydro-1,3,5-triazin-2(1H)-one]

SMILES: O=C(c1c(F)cccc1F)N1COCN(c2ccc([S+]([O-])C(F)(F)F)cc2)C1=O (stereo not shown) [I-26]
rate of dead pests (%) [1]: 100% | rate of pest control (%) [2]: 100% | rate of dead pests (%) [3]: 100% | rate of dead pests (%) [4]: 100% | rate of dead pests (%) [5]: 100%

SMILES: O=C(c1c(F)cccc1F)N1COCN(c2cc(Cl)c(F)c(Cl)c2F)C1=O [I-4]
rate of dead pests (%) [1]: 95% | rate of pest control (%) [2]: 92% | rate of dead pests (%) [3]: 100% | rate of dead pests (%) [5]: 100%

melting point: 274 to 275 °C
SMILES: O=C(c1c(F)cccc1F)N1CS(=O)(=O)CN(c2ccc(Cl)cc2)C1=O [II-3, 3-(4-chlorophenyl)-5-(2,6-difluorobenzoyl)tetrahydro-4H-1,3,5-thiadiazin-4-one-1,1-dioxide]

SMILES: O=C(c1c(F)cccc1F)N1CNCN(c2ccc(SC(F)(F)C(F)Cl)cc2F)C1=O (stereo not shown) [III-78]
rate of pest control (%) [2]: 83% | rate of dead pests (%) [4]: 100% | rate of dead pests (%) [5]: 100%

melting point: 128.5 to 130.5 °C
SMILES: O=C(c1c(F)cccc1F)N1CSCN(c2ccc(Cl)cc2)C1=O [II-1, 3-(4-chlorophenyl)-5-(2,6-difluorobenzoyl)tetrahydro-4H-1,3,5-thiadiazin-4-one]
